Results from patent US20260137698A1, “CYCLIN-DEPENDENT KINASE 7 INHIBITORS” (JOINT STOCK COMPANY «BIOCAD», priority 2022, published 2026).

What was measured:
[1] = Passive membrane permeability through PAMPA artificial membrane, pH 7.4; assay type: in vitro ADME; conditions: pH 7.4, 10 μmol, 20 hours at room temperature, mean of multiple measurements, read-out: PAMPA passive permeability Pe
Method: Passive membrane permeability of the compounds described in the present invention was determined using the PAMPA (parallel artificial membrane permeability assay) model at pH 7.4.
We used a 96-well plate (Corning® BioCoat® Pre-coated PAMPA Plate System, order no. 353015), composed of acceptor and donor parts with cell membrane-modeling PVDF filter pre-impregnated with a lecithin-phospholipid bilayer. The substance (at a concentration of 10 μmol) in a 0.01 M phosphate buffer with pH 7.4 was introduced into a donor well of the plate, and pure buffer was introduced into an acceptor well; afterwards, the both parts were combined and incubated for 20 hours at room temperature so that the compound was redistributed between the two wells and the membrane. Verapamil (USP, USA, order no. 1711202) and propranolol (MCE LLC, USA, cat. no. HY-B0573/CS-2680) were used as control compounds with high and medium permeability. Samples were analyzed by reversed-phase HPLC with UV detection (Agilent 1260 chromatograph with UV detector) by determining their peak areas in the donor and acceptor wells.
Permeability (Pe, cm/s) and retention factor (R, %) in the lipid bilayer were calculated using the formula:
[formula] [formula] • Co is donor-well concentration of the substance at the initial moment of time t (μM); • CA (t) is acceptor-well concentration of the substance at time t (μM); • Vd is donor-well volume (0.3 ml); • Va is acceptor-well volume (0.15 ml).
[formula] • A is filter area (0.3 cm^2); • t is incubation time (72000 s);

CDK9/Cyclin K = CDK9/Cyclin K (Homo sapiens, UniProt P50750); test: Inhibition of CDK9/Cyclin K kinase activity (ADP-Glo); assay type: biochemical; conditions: mean value from several measurements; read-out: IC50 CDK9/Cyclin K
Method: (§1) Measurements were carried out in a 5 μl reaction volume using a 384-well plate (Corning Inc., order no. 4513). The analyzed substances were titrated from 50 μM in increments of 4 at 11 concentration points in a normal strength kinase buffer A (Thermo Fisher Scientific Inc, cat. no. PV3189) supplemented with DTT (Sigma, orde. no. 646563-10X.5ML) and prepared with water (Panreac, order no. 701074). Kinase was diluted in an analogous buffer, mixed with test compounds in plate wells and preincubated for 10 minutes at 25° C. Following incubation, a mixture of reaction substrate (CDKtide (SignalChem, order no. C06-58) or Histone H1 (SignalChem, order no. H10-54N) or PDKtide (SignalChem, order no. P10-58) and ATP (SignalChem, order no. V915B) prepared on a normal strength kinase buffer A was added. 1% solution of dimethyl sulfoxide (DMSO) (Sigma-Aldrich, order no. D2438) in the reaction volume was used as a negative control. The final concentrations of all reaction components are shown in Table 5. The plate was centrifuged at 400 rcf (Eppendorf, 5804 R) for 1 minute and incubated for 40-60 minutes at 25° C. The amount of ATP consumed in the kinase reaction was then measured using the ADP-Glo™ detection system. Luminescence signal was measured using Spark 20M tablet multifunction reader (Tecan Group Ltd, Switzerland). IC50 value was calculated using Magellan 7.2 (Tecan Group Ltd, Switzerland) by approximating experimental points by four-parameter model with the optimization by Levenberg-Marquardt:
(§2) [formula] • where A is the upper asymptote; D is the lower asymptote; C is IC50, half-maximal inhibitory concentration of kinase, nM; B is the curvature (slope).

[2] = system: MDA-MB-468 (triple negative breast cancer); test: Antiproliferative assay on MDA-MB-468 cells (AlamarBlue, 96 h); assay type: cell-based; conditions: Homo sapiens, mean value from several measurements
Method: The antiproliferative activity of CDK7 inhibitors according to the present invention was evaluated in a cell test using continuous cell cultures: MDA-MB-468 (triple negative breast cancer, ATCC® HTB-132™) and NCl-H82 (small cell lung cancer, ATCC® HTB-175™) using a viable AlamarBlue dye (Thermo Fisher Scientific Inc, order no. DAL1100). The cells were grown in DMEM (PanEco, order no. C330π) and RPMI-1640 (PanEco, order no. C330π), respectively. The basal growth medium was enriched with L-glutamine at a concentration of 2 mM (PanEco, order no. Φ032) and 10% fetal bovine serum (Gibco, order no. 16140-071). The night before measurement, MDA-MB-468 adherent cells were detached from plastic with a solution of trypsin-EDTA (PanEco, order no. Π039π), the solution was then inactivated by a DMEM complete medium, centrifuged at 1000 RPM (Eppendorf, 5804 R), a suspension of cells was prepared in a DMEM complete medium, introduced into 96-well culture plates (Corning Inc, order no. 3599) at 8×10^3 cells in 100 μl of medium per well. The next day, test compounds were dissolved in DMSO and diluted with a DMEM complete medium to a final concentration ranging from 50 μM to 10 pM. Diluted compounds in a volume of 50 μl were introduced into the plate wells with cells in triplicates (the final concentration of DMSO was no more than 1%) and incubated at 37° C. in an incubator with 5% CO2 for 96 hours. NCl-H82 suspension cell line was prepared on the day of the analysis. 10×10^3 cells in 100 μl of an RPMI-1640 complete medium were added to each well of a 96-well plate. The procedure for sample dilution is as described above. Cells with test compounds were incubated at 37° C. in an incubator with 5% CO2 for 120 hours. Following incubation, […] of AlamarBlue reagent (Thermo Fisher Scientific Inc., order no. DAL1100) was added to the wells, the contents of the plates were stirred in an orbital shaker (Biosan, Latvia), then further incubated for 5.5-6 hours at 37° C. in an incubator with 5% CO2. The number of viable cells was detected using the Infinite M200Pro microplate spectrophotometer (Tecan Group Ltd, Switzerland) by way of measuring a fluorescent signal at an excitation wavelength (λEx) of 540 nm and an emission wavelength (λEm) of 590 nm.
IC50 value was calculated using the Magellan software (Tecan Group Ltd, Switzerland) by approximating experimental points by four-parameter model with the optimization by Levenberg-Marquardt: […]

CDK7/Cyclin H/MNAT1 = CDK7/Cyclin H/MNAT1 (Homo sapiens, UniProt P50613); test: Inhibition of CDK7/Cyclin H/MNAT1 kinase activity (ADP-Glo); assay type: biochemical; conditions: mean value from several measurements; read-out: IC50 CDK7/Cyclin H/MNAT
Method: as §1, §2

[3] = General cytotoxicity on primary differentiated HepaRG cells (72 h); assay type: cell-based; conditions: human, general toxicity, mean value from several measurements
Description: General cytotoxicity of CDK7 inhibitors according to the present invention was investigated using primary differentiated HepaRG cells (Biopredic Int, order no. HPR101). A week before the measurement, the cells were thawed and maintained in Basal hepatic cell medium (Biopredic Int, order no. MIL700079) supplemented with HepaRG maintenance/metabolism medium supplement with antibiotics (Biopredic Int, order no. ADD620C). The medium in vials with cells was changed every 2-3 days. The night before the test, the cells were plated in wells of 96-well plates (Corning Inc., order no. 3599) at 25×10^3 cells in 100 μl of medium per well. The next day, test compounds were introduced into plate wells with cells, untitrated at a concentration ranging from 200 μM to 0.2 nM, and incubated for 72 hours. Cell viability was assessed as described above.

CDK2/Cyclin A = CDK2/Cyclin A (Homo sapiens, UniProt P24941); test: Inhibition of CDK2/Cyclin A kinase activity (ADP-Glo); assay type: biochemical; conditions: mean value from several measurements; read-out: IC50 CDK2/Cyclin A
Method: as §1, §2

Chain of CDK7/Cyclin H/MNAT1 (P50613 whole entry): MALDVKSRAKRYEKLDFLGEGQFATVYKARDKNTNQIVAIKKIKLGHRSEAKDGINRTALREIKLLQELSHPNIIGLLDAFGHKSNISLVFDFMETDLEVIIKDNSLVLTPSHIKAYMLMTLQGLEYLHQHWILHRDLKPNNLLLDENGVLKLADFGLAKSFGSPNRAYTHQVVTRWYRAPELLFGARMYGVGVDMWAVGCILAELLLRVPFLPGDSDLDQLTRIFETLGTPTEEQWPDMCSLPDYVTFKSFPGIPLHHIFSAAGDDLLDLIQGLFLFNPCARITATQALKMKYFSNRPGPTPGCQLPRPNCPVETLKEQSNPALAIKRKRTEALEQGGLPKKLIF
Chain of CDK7/Cyclin H/MNAT1 (P51946 whole entry partner): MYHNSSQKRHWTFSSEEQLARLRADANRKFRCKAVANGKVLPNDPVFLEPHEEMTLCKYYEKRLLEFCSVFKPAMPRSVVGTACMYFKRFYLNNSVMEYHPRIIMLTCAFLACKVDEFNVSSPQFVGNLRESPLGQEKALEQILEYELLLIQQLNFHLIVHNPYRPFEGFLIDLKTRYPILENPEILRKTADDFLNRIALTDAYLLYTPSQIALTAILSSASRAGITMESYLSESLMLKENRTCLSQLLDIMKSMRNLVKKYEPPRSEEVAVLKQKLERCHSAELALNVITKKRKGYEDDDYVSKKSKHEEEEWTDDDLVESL
Chain of CDK7/Cyclin H/MNAT1 (P51948 whole entry partner): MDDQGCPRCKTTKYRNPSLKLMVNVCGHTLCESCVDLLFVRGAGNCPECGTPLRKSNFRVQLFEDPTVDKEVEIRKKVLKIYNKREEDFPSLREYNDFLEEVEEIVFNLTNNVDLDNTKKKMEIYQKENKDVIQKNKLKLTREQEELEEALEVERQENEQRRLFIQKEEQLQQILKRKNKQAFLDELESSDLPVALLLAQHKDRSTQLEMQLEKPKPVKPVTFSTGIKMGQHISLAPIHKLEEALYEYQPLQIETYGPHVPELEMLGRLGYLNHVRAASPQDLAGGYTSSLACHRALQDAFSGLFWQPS
Chain of CDK9/Cyclin K (P50750 whole entry): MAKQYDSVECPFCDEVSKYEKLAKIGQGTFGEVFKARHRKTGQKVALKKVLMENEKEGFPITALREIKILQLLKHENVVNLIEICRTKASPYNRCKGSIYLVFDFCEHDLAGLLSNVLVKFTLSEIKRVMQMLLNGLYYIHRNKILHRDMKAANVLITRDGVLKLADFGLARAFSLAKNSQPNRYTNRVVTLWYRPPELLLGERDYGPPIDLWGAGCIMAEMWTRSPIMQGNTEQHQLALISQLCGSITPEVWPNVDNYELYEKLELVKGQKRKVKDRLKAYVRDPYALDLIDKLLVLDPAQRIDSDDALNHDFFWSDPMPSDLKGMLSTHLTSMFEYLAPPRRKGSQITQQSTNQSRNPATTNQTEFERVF
Chain of CDK9/Cyclin K (O75909 whole entry partner): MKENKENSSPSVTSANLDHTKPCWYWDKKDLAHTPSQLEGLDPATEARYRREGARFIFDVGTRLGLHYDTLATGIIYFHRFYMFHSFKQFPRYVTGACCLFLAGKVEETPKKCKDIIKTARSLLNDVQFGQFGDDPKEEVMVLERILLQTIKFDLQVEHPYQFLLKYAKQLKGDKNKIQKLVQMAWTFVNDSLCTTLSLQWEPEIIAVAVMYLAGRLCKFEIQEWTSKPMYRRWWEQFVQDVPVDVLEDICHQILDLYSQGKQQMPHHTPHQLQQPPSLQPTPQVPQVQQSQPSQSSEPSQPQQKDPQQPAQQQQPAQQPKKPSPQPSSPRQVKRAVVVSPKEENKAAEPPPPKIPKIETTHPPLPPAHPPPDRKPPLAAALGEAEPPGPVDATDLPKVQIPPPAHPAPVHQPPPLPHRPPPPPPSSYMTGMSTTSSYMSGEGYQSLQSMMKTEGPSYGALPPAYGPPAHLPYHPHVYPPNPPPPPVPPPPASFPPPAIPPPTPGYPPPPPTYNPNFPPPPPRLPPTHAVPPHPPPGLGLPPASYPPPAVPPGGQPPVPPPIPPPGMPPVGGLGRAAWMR

| Compound | Papp at 20 h, 10 μmol [1] [×10⁻⁶ cm/s] | IC50 (CDK9/Cyclin K) [µM] | IC50 [2] [µM] | IC50 (CDK7/Cyclin H/MNAT1) [µM] | CC50 at 72 h [3] [µM] | IC50 (CDK2/Cyclin A) [µM] |
| --- | --- | --- | --- | --- | --- | --- |
| FC(F)(F)c1cnc(N[C@H]2CCCNC2)nc1-c1c[nH]c(-c2ccccc2)c1 [CDK7_533, 4-(5-phenyl-1H-pyrrol-3-yl)-N-[(3S)-piperidin-3-yl]-5-(trifluoromethyl) pyrimidin-2-amine] | < 1 | > 0.2 | 0.1 to 1 | 0.05 to 0.2 | 0.5 to 2 | > 0.2 |
| CN(C)C(=O)c1cc(-c2nc(N[C@H]3CCCNC3)ncc2C(F)(F)F)c[nH]1 [CDK7_536, N,N-dimethyl-4-(2-{[(3S)-piperidin-3-yl]amino}-5-(trifluoromethyl)pyrimidin-4-yl)-1H-pyrrole-2-carboxamide] | 1 to 5 | 0.005 to 0.05 | 0.01 to 0.1 | < 0.005 | 0.5 to 2 | > 0.2 |
| Nc1ccccc1Oc1nc(N[C@H]2CCCNC2)ncc1C(F)(F)F [CDK7_548, 4-(2-aminophenoxy)-N-[(3S)-piperidin-3-yl]-5-(trifluoromethyl) pyrimidin-2-amine] | 1 to 5 | 0.005 to 0.05 | 0.01 to 0.1 | 0.005 to 0.05 | 0.5 to 2 | > 0.2 |
| CP(C)(=O)c1ccccc1Nc1nc(N[C@H]2CCCNC2)ncc1C(F)(F)F [CDK7_735, N4-[2-(dimethylphos-phoryl)phenyl]-N2-[(3S)-piperidin-3-yl]-5-(trifluoromethyl) pyrimidine-2,4-diamine] | < 1 | 0.005 to 0.05 | 0.1 to 1 | < 0.005 | > 2 | > 0.2 |
| FC(F)(F)c1cnc(N[C@H]2CCCNC2)nc1-n1nnc2ccccc21 [CDK7_811, 4-(1H-1,2,3-benzotriazol-1-yl)-N-[(3S)-piperidin-3-yl]-5-(trifluoromethyl)py-rimidin-2-amine] | 5 to 10 | – | 0.1 to 1 | 0.005 to 0.05 | 0.5 to 2 | > 0.2 |
| Cn1cc(NC(=O)c2cc(-c3nc(N[C@H]4CCCNC4)ncc3C(F)(F)F)c[nH]2)cn1 [CDK7_835, N-(1-methyl-1H-pyrazol-4-yl)-4-(2-{[(3S)-piperidin-3-yl]amino}-5-(trifluoromethyl)pyrimidin-4-yl)-1H-pyrrole-2-carboxamide] | < 1 | 0.005 to 0.05 | 0.1 to 1 | 0.005 to 0.05 | > 2 | > 0.2 |
| Cc1ccc(P(C)(C)=O)c(Nc2nc(N[C@H]3CCCNC3)ncc2C(F)(F)F)c1 [CDK7_903, N4-[2-(dimethylphos-phoryl)-5-methylphenyl]-N2-[(3S)-piperidin-3-yl]-5-(trifluoromethyl) pyrimidine-2,4-diamine] | < 1 | > 0.2 | – | 0.005 to 0.05 | – | > 0.2 |
| Cc1ccc(Nc2nc(N[C@H]3CCCNC3)ncc2C(F)(F)F)c(P(C)(C)=O)c1 [CDK7_904, N4-[2-(dimethylphos-phoryl)-4-methylphenyl]-N2-[(3S)-piperidin-3-yl]-5-(trifluoromethyl) pyrimidine-2,4-diamine] | < 1 | 0.005 to 0.05 | 0.1 to 1 | < 0.005 | > 2 | > 0.2 |
| CN1Cc2c(-c3nc(N[C@H]4CCCNC4)ncc3C(F)(F)F)c[nH]c2C1=O [CDK7_944, 5-methyl-3-(2-{[(3S)-piperidin-3-yl]amino}-5-(trifluoromethyl)pyrimidin-4-yl)-1H,4H,5H,6H-pyrrolo[2,3-c]pyrrol-6-one] | < 1 | 0.005 to 0.05 | < 0.01 | < 0.005 | < 0.1 | > 0.2 |
| CN(C(=O)c1cc(-c2nc(N[C@H]3CCCNC3)ncc2C(F)(F)F)c[nH]1)C1CC1 [CDK7_1001, N-cyclopropyl-N-methyl-4-(2-{[(3S)-piperidin-3-yl]amino}-5-(trifluoromethyl)pyrimidin-4-yl)-1H-pyrrole-2-carboxamide] | – | 0.005 to 0.05 | 0.1 to 1 | < 0.005 | 0.5 to 2 | > 0.2 |
| CN(C(=O)c1cc(-c2nc(N[C@H]3CCCNC3)ncc2C(F)(F)F)c[nH]1)c1nccs1 [CDK7_1003, N-methyl-4-(2-{[(3S)-piperidin-3-yl]amino}-5-(trifluoromethyl)pyrimidin-4-yl)-N-(1,3-thiazol-2-yl)-1H-pyrrole-2-carboxamide] | – | 0.05 to 0.2 | 0.1 to 1 | 0.005 to 0.05 | 0.5 to 2 | > 0.2 |
| CN1CCC(=O)c2c(-c3nc(N[C@H]4CCCNC4)ncc3C(F)(F)F)c[nH]c2C1=O [CDK7_1021, 7-methyl-3-(2-{[(3S)-piperidin-3-yl]amino}-5-(trifluoromethyl)py-rimidin-4-yl)-1H,4H,5H,6H,7H, 8H-pyrrolo[2,3-c]azepine-4,8-dione] | < 1 | > 0.2 | – | 0.005 to 0.05 | > 2 | 0.005 to 0.05 |
| O=c1c2[nH]cc(-c3nc(N[C@H]4CCCNC4)ncc3C(F)(F)F)c2ccn1C1CCOCC1 [CDK7_1121] | < 1 | – | – | – | > 2 | – |
